From patent US20260263550A1, “METHODS AND COMPOSITIONS FOR TREATING, PREVENTING, INHIBITING, AMELIORATING OR DELAYING THE ONSET OF OPHTHALMIC CONDITIONS” (Stealth BioTherapeutics Inc., priority 2021, published 2026)

System: iPSC-derived RPE cells from AMD donors
Experiment: Cell viability assay on nitrite-modified ECM (Real Time-Glo MT Cell Viability Assay)
Assay type: cell-based, human
Conditions: 10, 100, 1000 nM; 24 hours; versus vehicle-treated cells; FIG. 8J, *p<0.05
Protocol: General. iPSC-derived RPE were generated from AMD patients (2 atrophic; 1 exudative) and patients with no history of AMD (n=3). To test the therapeutic efficacy of elamipretide and compound of Formula IIa, cell viability was analyzed on nitrite-modified extracellular matrix (ECM), a typical modification of aged Bruch's membrane, for 24 hrs. DNA microarrays were used to elucidate gene expression in AMD-derived RPE cultured on nitrite-modified ECM.
Preparation of RPE cell-derived ECM and nitrite-modified ECM RPE cell-derived ECM plates were prepared from ARPE-19 cells as described in Wang et al., Curr Eye Res. 30:691-702 (2005); Fields et al. (2017); and Moreira et al., Transl Vis Sci Technol. 4:10 (2015). ECM on 96-well plates were used to create two experimental plating surfaces (nontreated ECM and nitrite-modified ECM). Nitrite-modified ECM was prepared by adding 100 mM sodium nitrite to ECM followed by incubation at 37° C. for 7 days. Plates were then washed with DPBS and incubated with DPBS for 4 hours to completely remove the nitrite. […]
Cell viability was measured by Real Time-Glo MT Cell Viability Assay (Promega, Madison, WI, www.promega.com) according to the manufacturer's protocol. […] Luminescent signals were acquired using a BioTek FLx800 plate reader (BioTek).

For `Cc1cc(O)cc(C)c1C[C@H](NC(=O)[C@H](N)CCCNC(=N)N)C(=O)N[C@@H](CCCCN)c1nc(Cc2ccccc2)no1.Cl.Cl.Cl` [Formula IIa, (R)-2-amino-N—((S)-1-(((S)-5-amino-1-(3-benzyl-1,2,4-oxadiazol-5-yl)pentyl)amino)-3-(4-hydroxy-2,6-dimethylphenyl)-1-oxopropan-2-yl)-5-guanidinopentanamide], the “AMD-derived RPE cell viability on nitrite-modified ECM” value was “significantly enhanced”.
